This note sets out measurements from patent US20150352108A1, “AMINO-PYRIMIDINE COMPOUNDS AS INHIBITORS OF TBK1 AND/OR IKK EPSILON” (Alzheimer's Institute of America, priority 2009, published 2015).

Broadly, the pIC50 is the negative decadic logarithm of the IC50, by convention in mol/L.

pIC50: −log10 of the molar value. A value given as a limit tells only on which side of the number the result lay.

The target of the assay is T1, IKKε (Homo sapiens, UniProt Q14164).
T1 construct: His-tag; made in house; host or cells: Sf9 insect cells
T1 sequence (Q14164 1-716): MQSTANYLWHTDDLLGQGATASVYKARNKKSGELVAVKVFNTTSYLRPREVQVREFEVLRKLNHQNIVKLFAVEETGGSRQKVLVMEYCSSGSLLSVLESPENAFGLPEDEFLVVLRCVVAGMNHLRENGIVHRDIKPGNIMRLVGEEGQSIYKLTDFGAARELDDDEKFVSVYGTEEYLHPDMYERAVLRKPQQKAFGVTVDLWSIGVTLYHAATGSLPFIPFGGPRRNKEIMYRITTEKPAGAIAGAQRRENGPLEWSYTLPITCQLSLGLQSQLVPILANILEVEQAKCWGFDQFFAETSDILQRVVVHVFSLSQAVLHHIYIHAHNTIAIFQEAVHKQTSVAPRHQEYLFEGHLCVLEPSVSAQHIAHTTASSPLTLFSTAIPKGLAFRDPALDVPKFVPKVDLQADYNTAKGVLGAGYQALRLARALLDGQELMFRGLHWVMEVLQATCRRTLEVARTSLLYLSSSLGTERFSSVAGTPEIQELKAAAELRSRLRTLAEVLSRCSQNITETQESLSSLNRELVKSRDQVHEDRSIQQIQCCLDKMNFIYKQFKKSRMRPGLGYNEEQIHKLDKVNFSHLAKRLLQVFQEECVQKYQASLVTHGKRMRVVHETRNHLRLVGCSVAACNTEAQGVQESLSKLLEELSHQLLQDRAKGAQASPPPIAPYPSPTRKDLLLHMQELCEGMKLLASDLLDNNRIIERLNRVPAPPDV
Put plainly: In-vitro IKKε kinase assay ([γ33]ATP filter-plate). Type of assay: biochemical. Conditions: text bins; read-out: IC50 for inhibition of the kinase activity of IKKε. As to the method: IKKε enzyme was produced as a His-tag fusion in Sf9 cells and used at a final concentration of […]. TBK1 enzyme was produced as a His-tag fusion in Sf9 cells and used at a final concentration of 0.1 μg/ml. Kinase reactions were carried out in reaction buffer using myelin basic protein (Millipore, Ballerica, Mass.) or casein (Sigma, St. Louis, Mo.) as substrate at an ATP concentration equal to twice the Km,ATP value for each enzyme, corresponding to 32 μM ATP for IKKε and 60 μM ATP for TBK1, in the presence of 0.3 μCi [γ^33]ATP (PerkinElmer, Waltham, Mass.). Final enzyme concentrations were 0.1 or 0.015 μg/ml (IKKε) and 0.1 or 0.02 μg/ml (TBK1), representing “normal” and “sensitized” assay conditions respectively. Test compounds (or DMSO solvent as a control) were added prior to initiation of the reactions. Reactions were terminated after 30-45 minutes by adding 3% phosphoric acid. Terminated reactions were transferred to P-81 cellulose phosphate filterplates (Whatman, Inc., Piscataway, N.J.) and washed with 1% phosphoric acid on a vacuum apparatus. After air drying, scintillant (PerkinElmer, Waltham, Mass.) was added and the plates were read on a PerkinElmer TopCount NXT instrument. Counts were normalized to DMSO controls after background subtraction.
Take `N#Cc1cc(-c2ccnc(Nc3ccc(N4CCOCC4)cc3)n2)ccc1OC1CCN(C(=O)Cn2ccnc2)CC1` [Example 139, 2-{[1-(1H-imidazol-1-ylacetyl)piperidin-4-yl]oxy}-5-(2-{[4-(morpholin-4-yl)phenyl]amino}pyrimidin-4-yl)benzonitrile]: the negative-log IC50 (pIC50) is 7.30 to 8.30.
The value for `CC(C)C(=O)Nc1ccc(-c2ccnc(Nc3ccc(CN4CCN(CCO)CC4)cc3)n2)cc1C#N` [compound 426, N-(2-cyano-4-{2-[(4-{[4-(2-hydroxyethyl)piperazin-1-yl]methyl}phenyl)amino]pyrimidin-4-yl}phenyl)-2-methylpropanamide] was 7.30 to 8.30; that for `N#Cc1cc(-c2ccnc(Nc3ccc(N4CCOCC4)cc3)n2)ccc1Cl` [Example 102, 2-Chloro-5-(2-{[4-(morpholin-4-yl)phenyl]amino}pyrimidin-4-yl)benzonitrile] was 7.30 to 8.30; that for `CC(C)NC(=O)N1CCC(Oc2ccc(-c3ccnc(Nc4ccc(N5CCOCC5)cc4)n3)cc2C#N)CC1` [Example 37, 4-[2-Cyano-4-(2-{[4-(morpholin-4-yl)phenyl]amino}pyrimidin-4-yl)phenoxy]-N-(propan-2-yl)piperidine-1-carboxamide] was 6.30 to 7.30.
Regarding `CC(=O)N1CC(Oc2ccc(-c3ccnc(Nc4ccc(N5CCOCC5)cc4)n3)cc2C#N)C1` [Example 53, 2-[(1-acetylazetidin-3-yl)oxy]-5-(2-{[4-(morpholin-4-yl)phenyl]amino}pyrimidin-4-yl)benzonitrile], the pIC50 was 6.30 to 7.30.
The value for `COc1cc(NC(=O)CN(C)C)cc(Nc2nccc(-c3ccc(OC)c(C#N)c3)n2)c1` [compound 336, N-(3-{[4-(3-Cyano-4-methoxyphenyl)pyrimidin-2-yl]amino}-5-methoxyphenyl)-N~2~,N~2~- dimethylglycinamide] was 7.30 to 8.30; that for `CC(=O)NS(=O)(=O)c1ccc(Nc2nccc(-c3ccc(OC4CCOCC4)c(C#N)c3)n2)cc1` [compound 630] was above 8.30.
To `CCC(C)(C)C(=O)Nc1ccc(-c2ccnc(Nc3ccc(N4CCOCC4)cc3)n2)cc1C#N` [Example 77, N-[2-cyano-4-(2-{[4-(morpholin-4-yl)phenyl]amino}pyrimidin-4-yl)phenyl]-2,2-dimethylbutanamide] belongs 6.30 to 7.30; to `CN(C)CCOc1ccc(-c2ccnc(Nc3ccc(N4CCOCC4)cc3)n2)cc1C#N` [Example 58, 2-[2-(Dimethylamino)ethoxy]-5-(2-{[4-(morpholin-4-yl)phenyl]amino}pyrimidin-4-yl)benzonitrile], 7.30 to 8.30.
As to `CO[C@@H](C)C(=O)N1CCC(Oc2ccc(-c3ccnc(Nc4ccc(N5CCOCC5)cc4)n3)cc2C#N)CC1` [Example 99], the negative-log IC50 (pIC50) was 7.30 to 8.30.
For the molecule `N#Cc1cccc(-c2ccnc(Nc3cccc(Cl)c3)n2)c1` [compound 338, 3-{2-[(3-Chlorophenyl)amino]pyrimidin-4-yl}benzonitrile], the pIC50 was 6.30 to 7.30.
To `N#Cc1cc(-c2ccnc(Nc3ccc(N4CCOCC4)cc3)n2)ccc1NC(=O)NC1CCOCC1` [Example 92, 1-[2-cyano-4-(2-{[4-(morpholin-4-yl)phenyl]amino}pyrimidin-4-yl)phenyl]-3-(tetrahydro-2H-pyran-4-yl)urea] belongs 7.30 to 8.30; to `N#Cc1cc(-c2ccnc(Nc3ccc(N4CCOCC4)cc3)n2)ccc1OCC1CCN(C(=O)C2(N)CC2)CC1` [Example 42, 2-({1-[(1-aminocyclopropyl)carbonyl]piperidin-4-yl}methoxy)-5-(2-{[4-(morpholin-4-yl)phenyl]amino}pyrimidin-4-yl)benzonitrile], 6.30 to 7.30; to `CCN(CC)CCN(CC)C(=O)Cc1cccc(Nc2nccc(-c3ccc(NC(=O)C(C)C)c(C#N)c3)n2)c1` [compound 424, N-[2-cyano-4-(2-{[3-(2-{[2-(diethylamino)ethyl] (ethyl)amino}-2-oxoethyl)phenyl]amino}pyrimidin-4-yl)phenyl]-2-methylpropanamide], 6.30 to 7.30.
The value for `CS(=O)(=O)N(c1ccc(-c2ccnc(Nc3ccc(N4CCOCC4)cc3)n2)cc1C#N)S(C)(=O)=O` [Example 167, N-[2-Cyano-4-(2-{[4-(morpholin-4-yl)phenyl]amino}pyrimidin-4-yl)phenyl]-N-(methylsulfonyl) methanesulfonamide] was 7.30 to 8.30.
To `CC(=O)Nc1cccc(Nc2nccc(-c3ccc(OCc4ccccc4)c(C#N)c3)n2)c1` [Example 185, N-[3-({4-[4-(Benzyloxy)-3-cyanophenyl]pyrimidin-2-yl}amino)phenyl] acetamide] belongs 7.30 to 8.30; to `COc1ccc(COc2ccc(-c3ccnc(Nc4ccc(N5CCOCC5)cc4)n3)cc2C#N)cc1` [Example 40, 2-[(4-Methoxybenzyl)oxy]-5-(2-{[4-(morpholin-4-yl)phenyl]amino}pyrimidin-4-yl)benzonitrile], 6.30 to 7.30.
Take `CC(C)C(=O)Nc1ccc(-c2ccnc(Nc3ccc(C(C)C(=O)N4CCOCC4)cc3)n2)cc1C#N` (centres unmarked) [compound 453, N-{2-cyano-4-[2-({4-[1-(morpholin-4-yl)-1-oxopropoan-2-yl]phenyl}amino)pyrimidin-4-yl]phenyl}-2-methylpropanamide]: the pIC50 is 7.30 to 8.30.
Regarding `CC(C)NC(=O)NCCOc1ccc(-c2ccnc(Nc3ccc(N4CCOCC4)cc3)n2)cc1C#N` [Example 47, 1-{2-[2-cyano-4-(2-{[4-(morpholin-4-yl)phenyl]amino}pyrimidin-4-yl)phenoxy]ethyl}-3-propan-2-ylurea], the pIC50 is 7.30 to 8.30.
The value for `N#Cc1cccc(-c2ccnc(Nc3ccc4c(c3)OCCO4)n2)c1` [Example 232, 3-[2-(2,3-Dihydro-1,4-benzodioxin-6-ylamino)pyrimidin-4-yl]benzonitrile] was 6.30 to 7.30.
As to `COc1cc(Nc2nccc(-c3ccc(OC4CCN(C(=O)CO)C4)c(C#N)c3)n2)ccc1OCCOCCN` (centres unmarked) [Example 199, 5-[2-({4-[2-(2-aminoethoxy)ethoxy]-3-methoxyphenyl}amino)pyrimidin-4-yl]-2-{[1-(hydroxyacetyl)pyrrolidin-3-yl]oxy}benzonitrile], the negative-log IC50 (pIC50) was 7.30 to 8.30.
The value for `COc1ccc(-c2ccnc(Nc3cc(CN4CCC[C@H]4C(=O)N(C)C)c(OC)c(OC)c3)n2)cc1C#N` [Example 245, 1-(5-{[4-(3-Cyano-4-methoxyphenyl)pyrimidin-2-yl]amino}-2,3-dimethoxybenzyl)-N,N-dimethylprolinamide] was 6.30 to 7.30; that for `COc1ccc(-c2ccnc(Nc3ccc(S(=O)(=O)NCCN(C)C)c(OC)c3)n2)cc1C#N` [compound 384] was 7.30 to 8.30; that for `CC(C)C(=O)Nc1ccc(-c2ccnc(Nc3ccc(N4CCOCC4)cc3)n2)cc1C#N` [Example 267, N-[2-Cyano-4-(2-{[4-(morpholin-4-yl)phenyl]amino}pyrimidin-4-yl)phenyl]-2-methylpropanamide] was 7.30 to 8.30.
To `N#Cc1cc(Cl)cc(-c2ccnc(Nc3ccc(N4CCOCC4)cc3)n2)c1` [Example 50, 3-Chloro-5-(2-{[4-(morpholin-4-yl)phenyl]amino}pyrimidin-4-yl)benzonitrile] belongs 7.30 to 8.30; to `CC(C)C(=O)Nc1ccc(-c2ccnc(Nc3ccc(C(C)CN4CCOCC4)cc3)n2)cc1C#N` (centres unmarked) [compound 452, N-{2-cyano-4-[2-({4-[1-(morpholin-4-yl)propan-2-yl]phenyl}amino)pyrimidin-4-yl]phenyl}-2-methylpropanamide], 6.30 to 7.30.
For `COc1cc(NC(=O)C2CCCC2)cc(Nc2nccc(-c3ccc(OC)c(C#N)c3)n2)c1` [compound 362, N-(3-{[4-(3-Cyano-4-methoxyphenyl)pyrimidin-2-yl]amino}-5-methoxyphenyl) cyclopentane-carboxamide], the negative-log IC50 (pIC50) was 7.30 to 8.30.
In the case of `CC(C)(O)CNC(=O)Nc1cccc(Nc2nccc(-c3ccc(OC4CCOCC4)c(C#N)c3)n2)c1` [compound 649, 1-[3-({4-[3-Cyano-4-(tetrahydro-2H-pyran-4-yloxy)phenyl]pyrimidin-2-yl}amino)phenyl]-3-(2-hydroxy-2-methylpropyl)urea], the negative logarithm of the IC50 (pIC50) is above 8.30.
To `COc1ccc(-c2ccnc(Nc3ccc(NC(=O)NCCO)cc3)n2)cc1C#N` [Example 9, 1-(4-{[4-(3-Cyano-4-methoxyphenyl)pyrimidin-2-yl]amino}phenyl)-3-(2-hydroxyethyl)urea] belongs 6.30 to 7.30.
